These results are taken from patent publication US20230146675A1, “PYRIMIDO[5,4-d]PYRIMIDINE DERIVATIVES AS ENT INHIBITORS FOR THE TREATMENT OF CANCERS, AND COMBINATION THEREOF WITH ADENOSINE RECEPTOR ANTAGONISTS” (ITEOS BELGIUM SA, priority 2020, published 2023).

Bounds are passed on as bounds.

In the assay the target is T1, human ENT1 (Homo sapiens, UniProt Q99808).
T1 sequence (Q99808 1-456): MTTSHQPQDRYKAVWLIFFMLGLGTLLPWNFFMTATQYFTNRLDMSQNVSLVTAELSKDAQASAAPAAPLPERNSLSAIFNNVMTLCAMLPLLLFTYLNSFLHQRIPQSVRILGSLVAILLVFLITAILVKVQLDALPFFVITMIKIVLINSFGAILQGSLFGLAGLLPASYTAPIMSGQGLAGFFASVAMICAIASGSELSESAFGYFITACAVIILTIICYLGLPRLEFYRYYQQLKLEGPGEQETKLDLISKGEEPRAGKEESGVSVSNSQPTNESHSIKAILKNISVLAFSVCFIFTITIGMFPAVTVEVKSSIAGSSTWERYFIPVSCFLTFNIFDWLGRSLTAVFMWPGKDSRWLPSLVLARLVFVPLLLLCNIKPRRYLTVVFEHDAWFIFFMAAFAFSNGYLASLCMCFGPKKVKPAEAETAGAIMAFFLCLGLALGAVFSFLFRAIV
Briefly: ENT1 binding assay (competition with Sahenta-DY647 on JAR cells). Details: JAR cells expressing ENT1 were bought from ATCC; host or cells: JAR cells. As to conditions: binned IC50. On the procedure: Purpose. […] By measuring the fluorescence at the end of the assay we could assess the binding potency of the compounds of the present invention.
JAR cells were resuspended in the described buffer. Compounds of the present invention and Sahenta-DY647 were diluted 200× in the described buffer.
The total volume of the reaction was 100 μL (50 μL of cells, 25 μL of the compounds of the present invention and 25 μL of Sahenta-DY647) in a 96 well plate, U-bottom (Greiner®, #650-180). The plates were washed 2× by centrifugation (4 min, 400 rcf at 4° C.) in the same buffer.
One may read the IC50 as the point on the concentration scale where inhibition reaches its midpoint. Read a high IC50 as lower potency. Compound `COCCN(CCOC)c1nc(N2CCN(c3nccs3)CC2)c2nc(N(CCOC)CCOC)nc(N3CCN(c4nccs4)CC3)c2n1` [Compound 1, N2,N2,N6,N6-tetrakis(2-methoxyethyl)-4,8-bis(4-(thiazol-2-yl)piperazin-1-yl)pyrimido[5,4-d]pyrimidine-2,6-diamine] registered an IC50 of under 100 nM.
`CCOC(=O)C1CCN(c2nc(N(CCOC)CCOC)nc3c(N4CCC(C(=O)OCC)CC4)nc(N(CCOC)CCOC)nc23)CC1` [Compound 3, diethyl 1,1′-(2,6-bis(bis(2-methoxyethyl)amino)pyrimido[5,4-d]pyrimidine-4,8-diyl)bis(piperidine-4-carboxylate)]: the IC50 fell in the range of 100 to 500 nM.
The same measure for `COCCN(CCOC)c1nc(N2CCc3cc(OC)c(OC)cc3C2)c2nc(N(CCOC)CCOC)nc(N3CCc4cc(OC)c(OC)cc4C3)c2n1` [Compound 4, 4,8-bis(6,7-dimethoxy-3,4-dihydroisoquinolin-2(1H)-yl)-N2,N2,N6,N6-tetrakis(2-methoxyethyl)pyrimido[5,4-d]pyrimidine-2,6-diamine]: 100 to 500 nM; for `COCCN(CCOC)c1nc(N2CCn3ncnc3C2)c2nc(N(CCOC)CCOC)nc(N3CCN(C)C(=O)C3)c2n1` [Compound 5, 4-(2,6-bis(bis(2-methoxyethyl)amino)-8-(5,6-dihydro-[1,2,4]triazolo[1,5-a]pyrazin-7(8H)-yl)pyrimido[5,4-d]pyrimidin-4-yl)-1-methylpiperazin-2-one]: under 100 nM; for `COCCN(CCOC)c1nc(N2CCn3ncnc3C2)c2nc(N(CCOC)CCOC)nc(N3CCS(=O)(=O)CC3)c2n1` [Compound 6, 4-(2,6-bis(bis(2-methoxyethyl)amino)-8-(5,6-dihydro-[1,2,4]triazolo[1,5-a]pyrazin-7(8H)-yl)pyrimido[5,4-d]pyrimidin-4-yl)thiomorpholine 1,1-dioxide]: 100 to 500 nM.
`COCCN(CCOC)c1nc(N2CCS(=O)(=O)CC2)c2nc(N(CCOC)CCOC)nc(NCc3ccccc3)c2n1` [Compound 7] had an IC50 of under 100 nM.
To `CCCN(C)c1nc(N(CCOC)CCOC)nc2c(N3CCS(=O)(=O)CC3)nc(N(CCOC)CCOC)nc12` [Compound 8, 4-(2,6-bis(bis(2-methoxyethyl)amino)-8-(methyl(propyl)amino)pyrimido[5,4-d]pyrimidin-4-yl)thiomorpholine 1,1-dioxide] belongs under 100 nM.
`COCCN(CCOC)c1nc(N2CCn3ncnc3C2)c2nc(N(CCOC)CCOC)nc(N3CCn4ncnc4C3)c2n1` [Compound 9, 4,8-bis(5,6-dihydro-[1,2,4]triazolo[1,5-a]pyrazin-7(8H)-yl)-N2,N2,N6,N6-tetrakis(2-methoxyethyl)pyrimido[5,4-d]pyrimidine-2,6-diamine] registered a concentration for half-maximal inhibition (IC50) of 100 to 500 nM.
For the compound `CCCN(C)c1nc(N(CCOC)CCOC)nc2c(N3CCn4ncnc4C3)nc(N(CCOC)CCOC)nc12` [Compound 10, 8-(5,6-dihydro-[1,2,4]triazolo[1,5-a]pyrazin-7(8H)-yl)-N2,N2,N6,N6-tetrakis(2-methoxyethyl)-N4-methyl-N4-propylpyrimido[5,4-d]pyrimidine-2,4,6-triamine], the IC50 lay within 100 to 500 nM.
The same measure for `COCCN(CCOC)c1nc(N2CC(O)(C(F)(F)F)C2)c2nc(N(CCOC)CCOC)nc(N3CC(O)(C(F)(F)F)C3)c2n1` [Compound 11, 1,1′-(2,6-bis(bis(2-methoxyethyl)amino)pyrimido[5,4-d]pyrimidine-4,8-diyl)bis(3-(trifluoromethyl)azetidin-3-ol)]: under 100 nM; for `COCCN(CCOC)c1nc(N2CC(O)(C(F)(F)F)C2)c2nc(N(CCOC)CCOC)nc(NCc3ccccc3)c2n1` [Compound 12, 1-(8-(benzylamino)-2,6-bis(bis(2-methoxyethyl)amino)pyrimido[5,4-d]pyrimidin-4-yl)-3-(trifluoromethyl)azetidin-3-ol]: under 100 nM.
The same measure for `CCCN(C)c1nc(N(CCOC)CCOC)nc2c(N3CC(O)(C(F)(F)F)C3)nc(N(CCOC)CCOC)nc12` [Compound 13, 1-(2,6-bis(bis(2-methoxyethyl)amino)-8-(methyl(propyl)amino)pyrimido[5,4-d]pyrimidin-4-yl)-3-(trifluoromethyl)azetidin-3-ol]: under 100 nM.
For `CCOC(=O)C1CCN(c2nc(N(CCOC)CCOC)nc3c(N4CCC(C(=O)OCC)CC4)nc(N(CCO)CCO)nc23)CC1` [Compound 14, diethyl 1,1′-(2-(bis(2-hydroxyethyl)amino)-6-(bis(2-methoxyethyl)amino)pyrimido[5,4-d]pyrimidine-4,8-diyl)bis(piperidine-4-carboxylate)], the half-maximal inhibitory concentration (IC50) lay within 500 to 1000 nM.
To `COC1CCN(c2nc(N(CCOC(C)=O)CCOC(C)=O)nc3c(N4CCC(OC)CC4)nc(N(CCOC(C)=O)CCOC(C)=O)nc23)CC1` [Compound 15, ((4,8-bis(4-methoxypiperidin-1-yl)pyrimido[5,4-d]pyrimidine-2,6-diyl)bis(azanetriyl))tetrakis(ethane-2,1-diyl)tetraacetate] belongs under 100 nM; to `COCCN(CCOC)c1nc(N2CCC(OC)CC2)c2nc(N(CCOC)CCOCCCN3CCN(C)CC3)nc(N3CCC(OC)CC3)c2n1` [Compound 16, N2,N2,N6-tris(2-methoxyethyl)-4,8-bis(4-methoxypiperidin-1-yl)-N6-(2-(3-(4-methylpiperazin-1-yl)propoxy)ethyl)pyrimido[5,4-d]pyrimidine-2,6-diamine], 500 to 1000 nM.
The same measure for `COCCN(CCOC)c1nc(N2CCC(F)(F)CC2)c2nc(N(CCO)CCO)nc(N3CCC(F)(F)CC3)c2n1` [Compound 19, 2,2′-((6-(bis(2-methoxyethyl)amino)-4,8-bis(4,4-difluoropiperidin-1-yl)pyrimido[5,4-d]pyrimidin-2-yl)azanediyl)diethanol]: 100 to 500 nM.
Turning to `COCCN(CCOC)c1nc(N2CCC(OC)CC2)c2nc(N3CCN(S(C)(=O)=O)CC3)nc(N3CCC(OC)CC3)c2n1` [Compound 30, N,N-bis(2-methoxyethyl)-4,8-bis(4-methoxypiperidin-1-yl)-6-(4-(methylsulfonyl)piperazin-1-yl)pyrimido[5,4-d]pyrimidin-2-amine], the IC50 lay in the range of 500 to 1000 nM.
The compound `CCOC(=O)N1CCN(c2nc(N3CCC(OC)CC3)c3nc(N(CCOC)CCOC)nc(N4CCC(OC)CC4)c3n2)CC1` [Compound 31, ethyl 4-(6-(bis(2-methoxyethyl)amino)-4,8-bis(4-methoxypiperidin-1-yl)pyrimido[5,4-d]pyrimidin-2-yl)piperazine-1-carboxylate] registered an IC50 of 500 to 1000 nM.
To `COCCN(CCOC)c1nc(N2CCC(OC)CC2)c2nc(NCCn3cccn3)nc(N3CCC(OC)CC3)c2n1` [Compound 32, N2-(2-(1H-pyrazol-1-yl)ethyl)-N6,N6-bis(2-methoxyethyl)-4,8-bis(4-methoxypiperidin-1-yl)pyrimido[5,4-d]pyrimidine-2,6-diamine] belongs 500 to 1000 nM; to `COCCN(CCOC)c1nc(N2CCCC(F)(F)C2)c2nc(N(CCOC)CCOC)nc(N3CCCC(F)(F)C3)c2n1` [Compound 33, 4,8-bis(3,3-difluoropiperidin-1-yl)-N2,N2,N6,N6-tetrakis(2-methoxyethyl)pyrimido[5,4-d]pyrimidine-2,6-diamine], under 100 nM; to `COCCN(CCO)c1nc(N2CCC(OC)CC2)c2nc(N(CCOC)CCOC)nc(N3CCC(OC)CC3)c2n1` [Compound 34, 2-((6-(bis(2-methoxyethyl)amino)-4,8-bis(4-methoxypiperidin-1-yl)pyrimido[5,4-d]pyrimidin-2-yl)(2-methoxyethyl)amino)ethanol], 500 to 1000 nM.
To `COCCN(CCOC)c1nc(N2CCS(=O)(=O)CC2)c2nc(N(CCOC)CCOC)nc(N3CCS(=O)(=O)CC3)c2n1` [Compound 37, 4,4′-(2,6-bis(bis(2-methoxyethyl)amino)pyrimido[5,4-d]pyrimidine-4,8-diyl)bis(thiomorpholine 1,1-dioxide)] belongs 500 to 1000 nM.
To `COCCN(CCOC)c1nc(N2CCN(c3nccs3)CC2)c2nc(N(CCO)CCO)nc(N3CCCCC3)c2n1` [Compound 38, 2,2′-((6-(bis(2-methoxyethyl)amino)-4-(piperidin-1-yl)-8-(4-(thiazol-2-yl)piperazin-1-yl)pyrimido[5,4-d]pyrimidin-2-yl)azanediyl)diethanol] belongs 100 to 500 nM.
For the compound `COCCN(CCOC)c1nc(N2CCCCC2)c2nc(N(CCO)CCO)nc(N3CCN(c4nccs4)CC3)c2n1` [Compound 39, 2,2′-((6-(bis(2-methoxyethyl)amino)-8-(piperidin-1-yl)-4-(4-(thiazol-2-yl)piperazin-1-yl)pyrimido[5,4-d]pyrimidin-2-yl)azanediyl)diethanol], the half-inhibitory concentration (IC50) was under 100 nM.
To `COCCN(CCOC)c1nc(N2CCC(OC)CC2)c2nc(N(CCOC)CCOCCCN3CCOCC3)nc(N3CCC(OC)CC3)c2n1` [Compound 44, N2,N2,N6-tris(2-methoxyethyl)-4,8-bis(4-methoxypiperidin-1-yl)-N6-(2-(3-morpholinopropoxy)ethyl)pyrimido[5,4-d]pyrimidine-2,6-diamine] belongs 500 to 1000 nM.
